Tests used:
Format in all cases: ADME, organism-based
Settings in all cases: in vivo
[1] = AUC (0 to t) in ICR (CD-1) mouse at […], po via gavage by mass spectrometric method
[2] = Cmax in ICR (CD-1) mouse at […], po via gavage by mass spectrometric method
[3] = Tmax in ICR (CD-1) mouse at […], po via gavage by mass spectrometric method
[4] = Cmax in ICR (CD-1) mouse at 20 mg/kg, po via gavage by mass spectrometric method; set-up: dose 20 mg/kg, route oral
[5] = AUC (0 to t) in ICR (CD-1) mouse at 20 mg/kg, po via gavage by mass spectrometric method
[6] = Tmax in ICR (CD-1) mouse at 20 mg/kg, po via gavage by mass spectrometric method

AUC(0-t) [1] [ng·h/mL] | Cmax [2] [ng/mL] | Tmax [3] [min] | Cmax [4] [ng/mL] | AUC(0-t) [5] [ng·h/mL] | Tmax [6] [min] | SMILES
383 | 189 | 19.8 | – | – | – | Cc1ccc2c(c1)CCN2C(=O)c1ccc2c(n1)N(C1CC1)C(C)C(=O)N2C (centres undefined)
– | – | – | 335 | 189 | 15 | Cc1ccc2c(c1)CCN2C(=O)c1ccc2c(c1)N(C1CC1)C(C)C(=O)N2C (centres undefined)
– | – | – | 1780 | 2660 | 18 | Cc1ccc(NC(=O)c2ccc3c(c2)N(C2CC2)C(C)C(=O)N3C)c(C)c1 (centres undefined)

Reference: ChEMBL document CHEMBL4196075, “Structure-based optimization of a series of selective BET inhibitors containing aniline or indoline groups” (Eur J Med Chem, 2018)
